Measured values from PubChem BioAssay AID2842 (Southern Research Institute, 2010).
Values after ≈ are worked out from the molar mass of the structure shown.

Tested on: M. tuberculosis H37Rv growth inhibition
Experiment: Mycobacterium tuberculosis H37Rv growth inhibition, putative kinase inhibitor library, confirmatory dose response (AID 2842);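 also: bacteria incubated one week before Alamar blue readout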

SMILES	IC90 [µg/mL]
O=C(Nc1nnc(-c2ccc3c(c2)CCCC3)o1)c1cc(Cl)sc1Cl	3.53 (≈ 8.95 µM)
O=C(CCSc1ccccc1)Nc1nnc(-c2ccccc2)o1	12.9 (≈ 39.7 µM)
CN(C)c1ccc(C(=O)Nc2nnc(C3=COCCO3)o2)cc1	9.01 (≈ 28.5 µM)
N=c1sc(/C=C2\C=Nc3ccccc32)c(O)n1-c1nccs1	< 0.2
CSc1cccc(-c2nnc(NC(=O)/C=C/c3cccs3)o2)c1	4.49 (≈ 13.1 µM)
COc1ccc(OC)c2sc(N(CCCn3ccnc3)C(=O)c3ccc(F)cc3)nc12	13.5 (≈ 30.6 µM)
O=C(/C=C/c1ccccc1)Nc1nnc(-c2ccc3c(c2)CCCC3)o1	1.67 (≈ 4.83 µM)
Cc1ccc(C)c(-c2nnc(NC(=O)c3ccccc3Cl)o2)c1	3.12 (≈ 9.52 µM)
Cc1ccc(-c2nnc(NC(=O)c3ccccc3C)o2)c(C)c1	2.52 (≈ 8.2 µM)
O=c1cnnc(N/N=C/c2c(O)ccc3ccccc23)[nH]1	< 0.2
CC(C)OC(=O)COc1ccc2cc(-c3ccccc3)c(=O)oc2c1	2.97 (≈ 8.78 µM)
CC(C)(C)C1CCc2c(sc3nnn(CC(=O)NCc4ccco4)c(=O)c23)C1 (stereo not drawn)	22.3 (≈ 55.7 µM)
O=C(Nc1nnc(C2=COCCO2)o1)c1cc(Cl)sc1Cl	34.1 (≈ 98 µM)
Cc1cccc(C(=O)Nc2nnc(-c3ccc(C)cc3C)o2)c1	9.06 (≈ 29.5 µM)
COc1cccc2sc(N(CCCn3ccnc3)C(=O)Cc3ccc(F)cc3)nc12	3.48 (≈ 8.2 µM)
CCN(c1ccccc1)S(=O)(=O)c1ccc(C(=O)Nc2ccc3ncsc3c2)cc1	14.7 (≈ 33.5 µM)
CCCCOc1ccc(C(=O)Nc2nnc(-c3ccncc3)o2)cc1	3.42 (≈ 10.1 µM)
O=C(Nc1ncc(Cc2cccc(C(F)(F)F)c2)s1)c1cccs1	2.92 (≈ 7.93 µM)
Cc1ccc2sc(N(CCCn3ccnc3)C(=O)c3ccc(F)cc3)nc2c1C	3.68 (≈ 9.01 µM)
CCOC(=O)COc1cccc(/C=C2\Oc3cc(OC)ccc3C2=O)c1	3.52 (≈ 9.93 µM)
COc1cc(C(=O)Nc2nnc(-c3ccc(C)cc3C)o2)cc(OC)c1OC	2.53 (≈ 6.6 µM)
COc1cc(/C=C(\C#N)c2nc(-c3ccc4c(c3)OCO4)cs2)cc([N+](=O)[O-])c1O	37.7 (≈ 89.2 µM)
Cc1cc(C)cc(Nc2nc(Nc3ccc(F)cc3)nc(N3CCOCC3)n2)c1	11.1 (≈ 28 µM)

SMILES	IC90 [µg/mL]
O=C(Nc1cccc(-c2ccc3nnc(-c4cccnc4)n3n2)c1)c1ccc(F)cc1F	27.6 (≈ 64.5 µM)
Cc1ccc(-n2ncc3c(NNC(=O)c4ccc(Cl)cc4Cl)ncnc32)cc1	11.9 (≈ 28.7 µM)
Cc1ccc2c(c1)c1nnc(-c3ccc4c(c3)OCO4)c-1cn2Cc1cccc(F)c1	3.39 (≈ 8.24 µM)
COc1cccc(-c2nnc(NC(=O)c3ccc(Cl)cc3Cl)o2)c1	8.25 (≈ 22.7 µM)
CCc1ccc(-c2nnc3c4cc5c(cc4n(Cc4ccc(OC)cc4)cc2-3)OCCO5)cc1	5.37 (≈ 11.9 µM)
COc1cc2c3nnc(-c4ccc(F)cc4)c-3cn(Cc3ccccc3)c2cc1OC	12 (≈ 29 µM)
Cc1nc2c(ccc3nc(NC(=O)c4ccc(C(C)(C)C)cc4)sc32)s1	3.24 (≈ 8.49 µM)
CCS(=O)(=O)c1cccc(C(=O)Nc2nnc(-c3cc(C)ccc3C)o2)c1	9.12 (≈ 23.7 µM)
CCS(=O)(=O)c1cccc(C(=O)Nc2nnc(-c3ccc(Br)cc3)o2)c1	7.76 (≈ 17.8 µM)
O=C(Nc1nnc(-c2ccc(F)cc2)o1)c1ccc2c(c1)CCCC2	8.65 (≈ 25.6 µM)
Cc1ccc(C)c2[nH]c(=O)c(CCNC(=S)NCCn3ccc4ccccc43)cc12	3.53 (≈ 8.43 µM)
COC(=O)CSCC(=O)Nc1nnc(-c2cccc(C)c2)s1	23.9 (≈ 70.8 µM)
Cc1ccc(-c2nnc(NC(=O)C3=COCCO3)o2)c(C)c1	7.35 (≈ 24.4 µM)
Cc1ccc(C)c(-c2nnc(NC(=O)c3ccccc3[N+](=O)[O-])o2)c1	4.88 (≈ 14.4 µM)
COc1ccccc1C(=O)Nc1nnc(-c2ccccc2Cl)o1	3.23 (≈ 9.8 µM)
O=C(Nc1nnc(-c2ccc3c(c2)CCCC3)o1)c1ccc(Cl)cc1Cl	0.91 (≈ 2.34 µM)
CCOC(=O)c1ccc2nc(Nc3nc4cc5c(cc4s3)OCO5)sc2c1	34.8 (≈ 87.2 µM)
O=C(Nc1nnc(-c2ccc(Cl)s2)o1)c1ccc(Br)s1	11.6 (≈ 29.8 µM)
O=C(Nc1nnc(-c2ccc(Cl)cc2)o1)c1ccccc1F	0.72 (≈ 2.27 µM)
CCCCC(=O)Nc1nnc(-c2ccc3c(c2)OCCO3)o1	9.06 (≈ 29.9 µM)
COc1cc2c3nnc(-c4ccc(C)cc4)c-3cn(Cc3cccc(C)c3)c2cc1OC	28.3 (≈ 66.9 µM)
COc1cccc(-c2nnc(NC(=O)c3ccc4c(c3)CCCC4)o2)c1	5.48 (≈ 15.7 µM)
CC(=O)Nc1nnc(-c2cc(C)ccc2C)o1	20.2 (≈ 87.3 µM)

SMILES	IC90 [µg/mL]
Cc1cc2cc(CNC(=O)C(=O)c3c[nH]c4ccccc34)ccc2[nH]1	8.44 (≈ 25.5 µM)
COc1ccc(-c2nnc3c4cc(OC)c(OC)cc4n(Cc4ccc(C)cc4)cc2-3)cc1	95.4 (≈ 217 µM)
O=C(N=Nc1c(O)[nH]c2ccccc12)c1cc(-c2cccc(OCc3ccccc3)c2)n[nH]1	20.2 (≈ 46.2 µM)
CC(C)COc1ccc(S(=O)(=O)Nc2ccc3c(c2)C(=O)Nc2ccccc2O3)cc1	6.99 (≈ 15.9 µM)
O=C1CN(C(=O)c2cccc3ccccc23)C(c2ccc(F)cc2)c2cc(Br)ccc2N1 (stereo not drawn)	10.2 (≈ 20.8 µM)
COc1cccc2sc(Nc3nc4c(s3)CC(C)CC4)nc12 (stereo not drawn)	5.79 (≈ 17.5 µM)
O=C(Nc1nnc(-c2ccccn2)o1)c1cccc(F)c1	3.47 (≈ 12.2 µM)
O=C(CS(=O)(=O)c1ccccc1)Nc1nc(-c2ccc3c(c2)CCCC3)cs1	1.02 (≈ 2.47 µM)
COc1ccc2c(c1)c(=O)c(C(=O)c1ccc(Cl)cc1)cn2Cc1ccccc1	6.44 (≈ 15.9 µM)
Cc1cc(Cl)ccc1N/C=C(\C#N)c1nc2ccccc2[nH]1	23.9 (≈ 77.4 µM)
O=C(Nc1nnc(C2=COCCO2)o1)c1cc(Cl)cc(Cl)c1	53.7 (≈ 157 µM)
COc1ccccc1-c1cnn2c(NC3CCCCC3)cc(C)nc12	13.5 (≈ 40.2 µM)
O=C(c1ccc(F)cc1)N1N=C(c2c(-c3ccccc3)c3cc(Br)ccc3[nH]c2=O)CC1c1ccco1 (stereo not drawn)	13.1 (≈ 23.5 µM)
COC(=O)COc1cccc(/C=C2\Oc3cc(OC)ccc3C2=O)c1	17.3 (≈ 50.7 µM)
Nc1c(C(=O)Nc2ccc(Br)cc2)sc2nc3c(c(-c4cccs4)c12)CCCC3	5.12 (≈ 10.6 µM)
O=C(Nc1nnc(-c2ccc(F)cc2)o1)c1sc2ccccc2c1Cl	9.54 (≈ 25.5 µM)
Cc1ccc2sc(N(CCCn3ccnc3)C(=O)c3cccs3)nc2c1C	0.54 (≈ 1.36 µM)
Cc1ccc(-c2nnc3c4cc5c(cc4n(Cc4cccc(C)c4)cc2-3)OCCO5)cc1	5.76 (≈ 13.7 µM)
O=C(Nc1nnc(-c2ccc3c(c2)OCCO3)o1)C1CC1	33.9 (≈ 118 µM)
O=C(Nc1nnc(-c2ccc(F)cc2)o1)c1cccc(Br)c1	93.6 (≈ 259 µM)
CC(O)CNc1ncnc2c1cnn2-c1ccc(Cl)c(Cl)c1 (stereo not drawn)	12.5 (≈ 37 µM)
Cc1cccc(-c2nc(SCC(=O)Nc3ccc4c(c3)OCO4)c(-c3ccccc3)[nH]2)c1	9.98 (≈ 22.5 µM)
CCOC(=O)c1ccc(NC(=O)CSc2ccc(F)cc2)cc1	5.47 (≈ 16.4 µM)

SMILES	IC90 [µg/mL]
Cc1cc(C)c2sc(NNC(=O)c3cc(-c4cccs4)nc4ccccc34)nc2c1	25.6 (≈ 59.5 µM)
CC1CCCCN1S(=O)(=O)c1ccc(C(=O)Nc2nnc(-c3ccc(Br)cc3)o2)cc1 (stereo not drawn)	17.3 (≈ 34.2 µM)
O=C(Nc1nnc(-c2cc(Cl)ccc2Cl)o1)c1cc(Cl)ccc1Cl	0.49 (≈ 1.22 µM)
Cc1ccc2sc(NNC(=O)c3cccs3)nc2c1C	23.2 (≈ 76.4 µM)
Cc1ccc(C)c(-c2nnc(NC(=O)c3cc(Cl)ccc3[N+](=O)[O-])o2)c1	0.68 (≈ 1.82 µM)
CCCC(=O)Nc1nnc(-c2cc(C)ccc2C)o1	2.09 (≈ 8.06 µM)
COc1ccc(C(=O)NNc2nc3cc(C)cc(C)c3s2)cc1	38.8 (≈ 118 µM)
COC(=O)c1c(C)oc2ccc(OCC(=O)OC(C)C)cc12	7.05 (≈ 23 µM)
Cc1ccc(C)c(-c2nnc(NC(=O)c3ccc([N+](=O)[O-])s3)o2)c1	3.09 (≈ 8.97 µM)
COc1ccc2c(c1)c1nnc(-c3ccc(C)cc3)c-1cn2Cc1ccccc1OC	4.23 (≈ 10.3 µM)
CC1Cc2cc(-c3nn(-c4ccccc4)cc3/C=C3\SC(=S)NC3=O)ccc2O1 (stereo not drawn)	1.79 (≈ 4.27 µM)
CCOc1ccc2nc(Nc3nc4ccc(NC(C)=O)cc4s3)sc2c1	7.84 (≈ 20.4 µM)
CCOc1cc(-c2nnc(NC(=O)c3cccs3)o2)cc(OCC)c1OCC	3.02 (≈ 7.49 µM)
CC1CCc2c(sc(Nc3nc4ccc(F)cc4s3)c2C(N)=O)C1 (stereo not drawn)	35.8 (≈ 99 µM)
COC(=O)c1c(NC(=O)c2cc3ccccc3cc2OC)sc2c1CC(C)(C)NC2(C)C	31.8 (≈ 70.2 µM)
CC1CCN(S(=O)(=O)c2ccc(C(=O)Nc3nnc(-c4cc(Cl)ccc4Cl)o3)cc2)CC1	35.4 (≈ 71.5 µM)
O=C(OCn1nnc2ccccc2c1=O)c1ccco1	4.76 (≈ 17.5 µM)
CCCC(=O)Nc1nnc(-c2ccccc2)o1	22 (≈ 95.2 µM)
Cc1cccc(C(=O)Nc2nnc(-c3cccnc3)o2)c1	8.87 (≈ 31.6 µM)
Cc1cccc(N2CCN(C(=O)CCCCCn3c(=O)[nH]c4ccsc4c3=O)CC2)c1C	20.9 (≈ 46 µM)
O=C(CSc1nc(-c2cccc(F)c2)[nH]c1-c1ccccc1)Nc1ccc2c(c1)OCO2	5.1 (≈ 11.4 µM)
Cc1ccc2sc(NNC(=O)c3coc4ccccc4c3=O)nc2c1C	34.9 (≈ 95.5 µM)
Cc1cccc2sc(NNC(=O)c3cc4ccccc4oc3=O)nc12	2.94 (≈ 8.37 µM)

SMILES	IC90 [µg/mL]
O=C1CN(C(=O)c2cc(Cl)ccc2Cl)C(c2ccccc2)c2cc(Cl)ccc2N1 (stereo not drawn)	6.59 (≈ 14.8 µM)
O=C(CCSc1ccccc1)Nc1nnc(-c2cccs2)o1	7.87 (≈ 23.7 µM)
Cc1ccc(S(=O)(=O)CCCC(=O)Nc2nc3c(Cl)c(Cl)ccc3s2)cc1	3.41 (≈ 7.69 µM)
Cc1cc(Nc2ccc(C)c(Cl)c2)n2ncc(-c3ccccc3)c2n1	3.35 (≈ 9.6 µM)
Cc1cc(C)c2nc(C(F)(F)F)nc(NC(C)CCc3ccccc3)c2c1 (stereo not drawn)	7.61 (≈ 20.4 µM)
CCOC(CNc1ncnc2c1cnn2-c1ccc(C)cc1)OCC	25.6 (≈ 74.9 µM)
COc1ccc(-c2nnc(Nc3nc4c(OC)cccc4s3)o2)cc1	23.6 (≈ 66.5 µM)
CCC(=O)Nc1nnc(-c2cc(Cl)ccc2Cl)o1	30.1 (≈ 105 µM)
CCOc1cccc2sc(N(CCCn3ccnc3)C(=O)Cc3ccc(F)cc3)nc12	4.84 (≈ 11 µM)
CSc1ccc2nc(Nc3nc4ccc(NC(C)=O)cc4s3)sc2c1	< 0.2
COc1ccc(-c2nnc(SCC(=O)Nc3cc(C)on3)o2)cc1	6.72 (≈ 19.4 µM)
O=C(Nc1nnc(-c2ccc3c(c2)CCCC3)o1)c1ccccc1Br	< 0.2
Cc1ccccc1C(=O)Nc1nnc(-c2ccc(F)cc2)o1	< 0.2
Cc1ccc(-c2nnc(NC(=O)c3ccc(Cl)cc3Cl)o2)c(C)c1	4.12 (≈ 11.4 µM)
Cc1ccc(N2C(=O)C(Cl)=C(Nc3cc(Cl)ccc3O)C2=O)cc1	25.4 (≈ 69.8 µM)
Cc1ccc(C)c(-c2nnc(NC(=O)c3cccc(Cl)c3)o2)c1	16.3 (≈ 49.8 µM)
O=C(Nc1nnc(-c2cccs2)o1)c1cc(-c2ccccc2)nc2ccccc12	0.53 (≈ 1.33 µM)
CCc1ccc(-c2nnc3c4cc5c(cc4n(Cc4ccc(C)cc4)cc2-3)OCCO5)cc1	15.3 (≈ 35 µM)
O=C(OCc1ccco1)c1cc2cc(Br)ccc2oc1=O	16.3 (≈ 46.7 µM)
COc1ccccc1-c1nc(C(N)=O)c2[nH]c(=O)n(-c3ccc(C(C)(C)C)cc3)c2n1	9.91 (≈ 23.7 µM)
O=C(Nc1nnc(-c2ccccc2)o1)c1cc(-c2cccs2)nc2ccccc12	0.72 (≈ 1.81 µM)
